From paper PMC12516390 (ACS Medicinal Chemistry Letters, 2025)
Converted amounts (≈) assume the structure as drawn. Where two headings read alike, the source gives them in different places.

Legend:
[1] = target: recombinant M^Pro (Severe acute respiratory syndrome coronavirus 2, UniProt P0DTD1); test: SARS-CoV-2 Mpro screening and IC50 determination (QS1 fluorogenic substrate, Drag assay); format: biochemical; conditions: for inhibition at 10 µM: read-out: M^Pro (%inh)@10μM
[2] = in vitro; conditions: African monkey
[3] = target: PL^Pro (Severe acute respiratory syndrome coronavirus 2, UniProt P0DTD1); test: SARS-CoV-2 PLpro screening (Ac-LRGG-ACC substrate); format: biochemical; conditions: read-out: PL^Pro (%inh)@10μM
[4] = target: Human Recombinant Cathepsin B (Homo sapiens, UniProt P07858); test: Cathepsin selectivity screening, Cat B (Z-Phe-Arg-AMC); format: biochemical; conditions: for IC50: Z-Phe-Arg-AMC substrate
[5] = target: Human Recombinant Cathepsin S (Homo sapiens, UniProt P25774); test: Cathepsin selectivity screening, Cat S (Z-Val-Val-Arg-AMC); format: biochemical; conditions: Z-Val-Val-Arg-AMC substrate
Sequence of Human Recombinant Cathepsin S (P25774 115-331): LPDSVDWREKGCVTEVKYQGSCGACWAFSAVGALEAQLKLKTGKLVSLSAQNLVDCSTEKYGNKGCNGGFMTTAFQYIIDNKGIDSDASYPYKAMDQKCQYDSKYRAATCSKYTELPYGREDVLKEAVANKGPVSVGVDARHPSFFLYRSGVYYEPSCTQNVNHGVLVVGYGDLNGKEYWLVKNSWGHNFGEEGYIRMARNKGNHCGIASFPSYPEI

[6] = target: Human Recombinant Cathepsin L (Homo sapiens, UniProt P07711); test: Cathepsin selectivity screening, Cat L (Z-Phe-Arg-AMC); format: biochemical; conditions: Z-Phe-Arg-AMC substrate
Sequence of Human Recombinant Cathepsin L (P07711 114-333): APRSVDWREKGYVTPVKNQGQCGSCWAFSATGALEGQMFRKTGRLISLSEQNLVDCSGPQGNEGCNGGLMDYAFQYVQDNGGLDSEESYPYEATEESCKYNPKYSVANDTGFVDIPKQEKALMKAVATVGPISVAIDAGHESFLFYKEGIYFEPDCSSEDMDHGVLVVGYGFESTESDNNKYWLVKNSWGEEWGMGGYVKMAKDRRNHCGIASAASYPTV

[7] = target: T1, Human Recombinant Cathepsin K (Homo sapiens, UniProt P43235); test: Cathepsin selectivity screening, Cat K (Z-Phe-Arg-AMC); format: biochemical; conditions: Z-Phe-Arg-AMC substrate
T1 sequence (P43235 115-329): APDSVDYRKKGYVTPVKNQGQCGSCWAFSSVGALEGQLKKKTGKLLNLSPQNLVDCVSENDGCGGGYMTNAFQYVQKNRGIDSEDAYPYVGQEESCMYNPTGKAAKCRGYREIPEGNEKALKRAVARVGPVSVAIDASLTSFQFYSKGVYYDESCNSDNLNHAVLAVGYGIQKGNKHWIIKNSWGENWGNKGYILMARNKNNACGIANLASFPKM

[8] = in vitro; conditions: human, microsomes, pH 7.4
[9] = physchem; conditions: pH 7.4, aqueous buffer, kinetic from dmso stock
[10] = in vitro; conditions: mouse, microsomes, pH 7.4
[11] = physchem; conditions: pH 7.4
[12] = M^Pro IC50 (μM), recombinant M^Pro, 20 μM QS1 (Ac-Abu-Tle-Leu-Gln-ACC) substrate, Table 1
[13] = Table 5, read-out: IC50 (μM) CatB
[14] = Table 5, read-out: IC50 (μM) CatS
[15] = Table 5, read-out: IC50 (μM) CatL
[16] = Table 5, read-out: IC50 (μM) CatK
[17] = M^Pro IC50 (μM), recombinant M^Pro, 20 μM QS1 substrate, Table 3
[18] = M^Pro IC50 (μM), recombinant M^Pro, Table 6
[19] = IC50 (μM) M^Pro, recombinant M^Pro, 20 μM QS1 substrate, Table 5

| SMILES | inhibition at 10 µM [1] | CC50 [2] | inhibition at 10 µM [3] | IC50 [4, 13] | IC50 [5, 14] | IC50 [6, 15] | IC50 [7, 16] | IC50 [1, 19] | also measured |
| --- | --- | --- | --- | --- | --- | --- | --- | --- | --- |
| COc1cccc(-c2ccc(C(=O)N[C@@H](CC(C)C)C(=O)N[C@H](C#N)C[C@@H]3CCNC3=O)cc2)c1 [6e] | > 95% | > 100 µM | < 50% | – | – | – | – | – | IC50 ([1]; M^Pro IC50 (μM), Table 2): 0.786 µM; IC50 [1, 12]: 0.786 µM |
| COc1ccc(-c2ccc(C(=O)N[C@@H](CC(C)C)C(=O)N[C@H](C#N)C[C@@H]3CCNC3=O)cc2)cc1OC [6f] | > 95% | > 100 µM | < 50% | – | – | – | – | – | IC50 ([1]; M^Pro IC50 (μM), Table 2): 0.859 µM; IC50 [1, 12]: 0.859 µM |
| CC(C)C[C@H](NC(=O)c1ccc(-c2cccc3nn(C)cc23)cc1)C(=O)N[C@H](C#N)C[C@@H]1CCNC1=O [6j] | > 95% | > 100 µM | < 50% | – | – | – | – | – | IC50 ([1]; M^Pro IC50 (μM), Table 2): 0.622 µM; IC50 [1, 12]: 0.622 µM |
| CC(C)C[C@H](NC(=O)c1ccc(-c2ccc3c(cnn3C)c2)cc1)C(=O)N[C@H](C#N)C[C@@H]1CCNC1=O [6l] | > 95% | > 100 µM | < 50% | – | – | – | – | – | IC50 ([1]; read-out: M^Pro IC50, Table 2): 0.56 µM; IC50 ([1]; read-out: M^Pro IC50, recombinant M^Pro, 20 μM QS1 (Ac-Abu-Tle-Leu-Gln-ACC) substrate, Table 1): 0.56 µM |
| COc1cccc(-c2ccc(C(=O)N[C@@H](CC3CCCCC3)C(=O)N[C@H](C#N)C[C@@H]3CCNC3=O)cc2)c1 [12k] | < 95% | – | < 50% | > 10 µM | 0.011 µM | > 10 µM | > 10 µM | – | IC50 [1, 12]: 2.01 µM |
| COc1ccc(-c2ccc(C(=O)N[C@@H](CC3CCCCC3)C(=O)N[C@H](C#N)C[C@@H]3CCNC3=O)cc2)cc1 [12l] | < 95% | – | < 50% | > 10 µM | 0.006 µM | > 10 µM | 1.64 µM | – | IC50 [1, 12]: 1.76 µM |
| CC(C)C[C@H](NC(=O)c1ccc(-c2cccc3nn(C)cc23)cc1F)C(=O)N[C@H](C#N)C[C@@H]1CCNC1=O [18a] | – | > 100 µM | – | – | – | – | – | – | IC50 ([4]; Table 4, read-out: CatB IC50): 0.142 µM; IC50 ([5]; Table 4, read-out: CatS IC50): 0.0279 µM; IC50 ([6]; Table 4, read-out: CatL IC50): > 10 µM; IC50 ([1]; M^Pro IC50 (nM), Table 4): 0.163 µM; IC50 [1, 17]: 0.162 µM; IC50 ([7]; Table 4, read-out: CatK IC50): 0.0485 µM |
| COc1ccc(-c2ccc(C(=O)N[C@@H](CC(C)C)C(=O)N[C@H](C#N)C[C@@H]3CCNC3=O)c(F)c2)cc1 [18b] | – | 51.6 µM | – | – | – | – | – | – | IC50 ([4]; Table 4, read-out: CatB IC50): 0.106 µM; IC50 ([5]; Table 4, read-out: CatS IC50): 0.232 µM; IC50 ([6]; Table 4, read-out: CatL IC50): > 10 µM; IC50 ([1]; M^Pro IC50 (nM), Table 4): 0.178 µM; IC50 [1, 17]: 0.178 µM; IC50 ([7]; Table 4, read-out: CatK IC50): 0.077 µM |
| COc1cccc(-c2ccc(C(=O)N[C@@H](CC(C)C)C(=O)N[C@H](C#N)C[C@@H]3CCNC3=O)c(Cl)c2)c1 [18n] | – | > 100 µM | – | 0.115 µM | 0.015 µM | – | 0.329 µM | – | IC50 ([4]; Table 4, read-out: CatB IC50): 0.115 µM; IC50 ([5]; Table 4, read-out: CatS IC50): 0.0155 µM; microsomal CLint at 1 μM [8]: 40 µL/min/mg; IC50 ([6]; Table 4, read-out: CatL IC50): > 10 µM; IC50 ([1]; M^Pro IC50 (nM), Table 4): 0.049 µM; IC50 [1, 17]: 0.049 µM; IC50 [1, 18]: 0.049 µM; solubility kinetic [9]: 34 µM (≈ 17.4 µg/mL); microsomal CLint at 1 μM [10]: 111 µL/min/mg; logD [11]: 3.1; IC50 ([7]; Table 4, read-out: CatK IC50): 0.329 µM |
| COc1ccc(-c2ccc(C(=O)N[C@@H](CC(C)C)C(=O)N[C@H](C#N)C[C@@H]3CCNC3=O)c(Cl)c2)cc1 [18r] | – | 40.1 µM | – | – | – | – | – | – | IC50 ([4]; Table 4, read-out: CatB IC50): 0.193 µM; IC50 ([5]; Table 4, read-out: CatS IC50): 0.0246 µM; IC50 ([6]; Table 4, read-out: CatL IC50): > 10 µM; IC50 ([1]; M^Pro IC50 (nM), Table 4): 0.045 µM; IC50 [1, 17]: 0.045 µM; IC50 ([7]; Table 4, read-out: CatK IC50): 0.123 µM |
| COc1ccc(-c2ccc(C(=O)N3C[C@H]4[C@@H]([C@H]3C(=O)N[C@H](C#N)C[C@@H]3CCNC3=O)C4(C)C)c(Cl)c2)cc1 [22e] | – | > 100 µM | – | > 10 µM | 1.03 µM | > 10 µM | 2.08 µM | 0.087 µM | activity against cathepsin B (in words) [4]: completely abolished; microsomal CLint at 1 μM [8]: 183 µL/min/mg; IC50 [1, 18]: 0.087 µM; solubility kinetic [9]: 97 µM (≈ 51.9 µg/mL); microsomal CLint at 1 μM [10]: 450 µL/min/mg; logD [11]: 3.4 |
| COc1cccc(-c2ccc(C(=O)N3C[C@H]4[C@@H]([C@H]3C(=O)N[C@H](C#N)C[C@@H]3CCNC3=O)C4(C)C)c(Cl)c2)c1 [22f] | – | > 100 µM | – | > 10 µM | 1.29 µM | > 10 µM | 4.52 µM | 0.12 µM | activity against cathepsin B (in words) [4]: completely abolished; microsomal CLint at 1 μM [8]: 209 µL/min/mg; IC50 [1, 18]: 0.12 µM; solubility kinetic [9]: 82 µM (≈ 43.9 µg/mL); microsomal CLint at 1 μM [10]: 450 µL/min/mg; logD [11]: 3.5 |
| COc1ccc(-c2ccc(C(=O)N3C[C@@H]4CCC[C@@H]4[C@H]3C(=O)N[C@H](C#N)C[C@@H]3CCNC3=O)c(Cl)c2)cc1 [22k] | – | – | – | > 10 µM | 0.718 µM | > 10 µM | 0.68 µM | 0.743 µM | – |
| COc1cccc(-c2ccc(C(=O)N3C[C@@H]4CCC[C@@H]4[C@H]3C(=O)N[C@H](C#N)C[C@@H]3CCNC3=O)c(Cl)c2)c1 [22l] | – | – | – | > 10 µM | 0.538 µM | > 10 µM | 1.07 µM | 1.06 µM | – |
| COc1ccc(-c2ccc(C(=O)N[C@@H](CC3CCCCC3)C(=O)N[C@H](C#N)C[C@@H]3CCNC3=O)c(F)c2)cc1 [23a] | – | – | – | > 10 µM | 0.016 µM | > 10 µM | > 10 µM | 0.807 µM | – |
| COc1cccc(-c2ccc(C(=O)N[C@@H](CC3CCCCC3)C(=O)N[C@H](C#N)C[C@@H]3CCNC3=O)c(F)c2)c1 [23b] | – | – | – | 0.238 µM | 0.059 µM | > 10 µM | 1.34 µM | 0.691 µM | – |
| COc1ccc(-c2ccc(C(=O)N[C@@H](CC3CCCCC3)C(=O)N[C@H](C#N)C[C@@H]3CCNC3=O)c(Cl)c2)cc1 [23c] | – | > 100 µM | – | 0.104 µM | 0.011 µM | > 10 µM | 1.52 µM | 0.077 µM | IC50 [1, 18]: 0.077 µM |
| COc1cccc(-c2ccc(C(=O)N[C@@H](CC3CCCCC3)C(=O)N[C@H](C#N)C[C@@H]3CCNC3=O)c(Cl)c2)c1 [23d] | – | > 100 µM | – | 0.137 µM | 0.011 µM | > 10 µM | 0.887 µM | 0.094 µM | – |
